Test results from PMC9462843 (Protein Science : A Publication of the Protein Society, 2022).

What was measured:
Assay type in all cases: biochemical
[1] = biological target: T1, BsIMPDH (Bacillus subtilis IMPDH) (Bacillus subtilis, UniProt P21879); assay: IMPDH activity assay, guanine nucleotide titration (NADH fluorescence); conditions: for K i,app: 0.25 mM ATP present; for effect on the catalytic activity in vitro: nucleotide alone (no ATP); for IC50: read-out: Estimated IC50
T1 construct: Open reading frames of the different enzymes were amplified by PCR using genomic DNA as template; 8xHis (N, cleaved yes); made in house; host or cells: E. coli BL21 (DE3)
Experimental: (§1) IMPDH activity was assayed using 384‐well microtiter plates by monitoring the appearance of NADH by fluorescence (λ exc = 340 nm and λ em = 460 nm, using a 10 nm slit window for both excitation and emission).
(§2) The total amount of MgCl2 was adjusted for each nucleotide concentration to keep 1 mM free Mg^2+ constant concentration, as previously described.[6] The experimental data were fitted to the Michaelis–Menten and allosteric sigmoidal equations using GraphPad Prism (GraphPad Software).

[2] = biological target: T2, EcIMPDH (Escherichia coli IMPDH) (Escherichia coli, UniProt P0ADG7); assay: as above; conditions: for effect on the catalytic activity in vitro: nucleotide alone (no ATP); for effect in vitro on the activity: even at millimolar concentrations, in presence or absence of ATP
T2 construct: Open reading frames of the different enzymes were amplified by PCR using genomic DNA as template; 8xHis (N, cleaved yes); made in house; host or cells: E. coli BL21 (DE3)
Experimental: as §1, §2

[3] = biological target: T3, PaIMPDH (Pseudomonas aeruginosa IMPDH) (Pseudomonas aeruginosa, UniProt Q9HXM5); assay: as above; conditions: for effect on the catalytic activity in vitro: nucleotide alone (no ATP); for effect in vitro on the activity: even at millimolar concentrations, in presence or absence of ATP
T3 construct: Open reading frames of the different enzymes were amplified by PCR using genomic DNA as template; 8xHis (N, cleaved yes); made in house; host or cells: E. coli BL21 (DE3)
T3 sequence (Q9HXM5 1-489): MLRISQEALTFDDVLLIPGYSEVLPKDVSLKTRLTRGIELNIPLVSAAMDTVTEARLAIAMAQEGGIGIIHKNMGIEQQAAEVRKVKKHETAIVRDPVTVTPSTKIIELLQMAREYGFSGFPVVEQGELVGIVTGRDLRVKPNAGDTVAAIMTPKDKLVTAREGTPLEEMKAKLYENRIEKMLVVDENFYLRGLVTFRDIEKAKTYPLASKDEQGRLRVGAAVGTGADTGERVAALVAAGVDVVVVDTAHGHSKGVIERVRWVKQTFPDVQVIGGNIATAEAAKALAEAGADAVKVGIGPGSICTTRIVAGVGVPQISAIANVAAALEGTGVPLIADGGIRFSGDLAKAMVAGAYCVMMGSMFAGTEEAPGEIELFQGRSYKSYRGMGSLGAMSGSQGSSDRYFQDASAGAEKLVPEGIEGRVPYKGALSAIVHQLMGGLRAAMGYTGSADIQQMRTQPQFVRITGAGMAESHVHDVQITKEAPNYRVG
Experimental: as §1, §2

[4] = biological target: StcIMPDH (Streptomyces coelicolor IMPDH) (Streptomyces coelicolor, UniProt Q9L0I7); assay: as above; conditions: for K i,app: 0.25 mM ATP present; for effect on the catalytic activity in vitro: nucleotide alone (no ATP)
Experimental: as §1, §2

[5] = biological target: T4, EcIMPDH (Escherichia coli, UniProt P0ADG7); assay: GTP titration curves at physiological ATP concentration (Km shift); conditions: read-out: GTP concentration needed to duplicate the Km value, constant 3 mM ATP, 0.5 mM NAD, 32°C
T4 construct: Open reading frames of the different enzymes were amplified by PCR using genomic DNA as template; 8xHis (N, cleaved yes); made in house; host or cells: E. coli BL21 (DE3)
Experimental: as §1
(§3) 32 °C in buffer 100 mM Tr i s-HCl,pH8.0,100 mM KCl, 1 mM DTT, 1 mM free MgCl2, […]

[6] = biological target: T5, PaIMPDH (Pseudomonas aeruginosa, UniProt Q9HXM5); assay: as above; conditions: read-out: GTP concentration required to duplicate the Km value, constant 3 mM ATP, 0.5 mM NAD, 32°C
T5 construct: Open reading frames of the different enzymes were amplified by PCR using genomic DNA as template; 8xHis (N, cleaved yes); made in house; host or cells: E. coli BL21 (DE3)
Experimental: as §1, §3

[7] = biological target: T6, Helicobacter pylori IMPDH (HpIMPDH) (Helicobacter pylori, UniProt P56088); assay: Effects of guanine nucleotides on the catalytic activity of HpIMPDH in vitro; conditions: 0.25 mM ATP + 0.5 mM (p)ppGpp, 32°C (Figure S12)
T6 construct: Open reading frames of the different enzymes were amplified by PCR using genomic DNA as template; 8xHis (N, cleaved yes); made in house; host or cells: E. coli BL21 (DE3)
T6 sequence (P56088 1-481): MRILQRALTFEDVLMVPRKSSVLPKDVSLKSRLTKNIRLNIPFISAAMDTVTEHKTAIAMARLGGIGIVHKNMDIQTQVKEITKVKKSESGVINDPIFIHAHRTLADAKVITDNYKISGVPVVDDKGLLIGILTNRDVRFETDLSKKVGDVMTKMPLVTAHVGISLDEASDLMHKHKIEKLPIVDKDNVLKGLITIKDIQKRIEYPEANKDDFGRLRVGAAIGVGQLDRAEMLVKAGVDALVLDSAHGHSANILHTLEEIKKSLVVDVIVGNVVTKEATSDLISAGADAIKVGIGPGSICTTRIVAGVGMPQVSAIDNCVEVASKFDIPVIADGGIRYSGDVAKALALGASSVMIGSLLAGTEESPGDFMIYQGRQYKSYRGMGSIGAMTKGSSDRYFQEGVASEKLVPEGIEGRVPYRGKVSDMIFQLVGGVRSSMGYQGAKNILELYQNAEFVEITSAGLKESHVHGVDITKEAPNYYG
Experimental: as §1
Supplemental Figure 12. Effects of guanine nucleotides on the catalytic activity of HpIMPDH in vitro.Normalized initialvelocity (V0) values calculated as the V0 in the absence of nucleotides divided by the corresponding values inthe presence of the indicated ones. The experiment was performed at 32 °C in buffer 100 mM Tr i s-HCl, pH 8.0, 100 mM KCl, 1 mM DTT, 1 mM free MgCl2, 50 nM enzyme, 0.5 mM NAD+ […]
Nucleotide concentrations were (from left to right): 0.5 mM
The Vo value used for normalization was 6.83 ± 0.1 nM/sec.
(1 picture or pasted object on this page, not shown here)

StcIMPDH (Streptomyces coelicolor IMPDH), sequence (Q9L0I7 entry or part of it): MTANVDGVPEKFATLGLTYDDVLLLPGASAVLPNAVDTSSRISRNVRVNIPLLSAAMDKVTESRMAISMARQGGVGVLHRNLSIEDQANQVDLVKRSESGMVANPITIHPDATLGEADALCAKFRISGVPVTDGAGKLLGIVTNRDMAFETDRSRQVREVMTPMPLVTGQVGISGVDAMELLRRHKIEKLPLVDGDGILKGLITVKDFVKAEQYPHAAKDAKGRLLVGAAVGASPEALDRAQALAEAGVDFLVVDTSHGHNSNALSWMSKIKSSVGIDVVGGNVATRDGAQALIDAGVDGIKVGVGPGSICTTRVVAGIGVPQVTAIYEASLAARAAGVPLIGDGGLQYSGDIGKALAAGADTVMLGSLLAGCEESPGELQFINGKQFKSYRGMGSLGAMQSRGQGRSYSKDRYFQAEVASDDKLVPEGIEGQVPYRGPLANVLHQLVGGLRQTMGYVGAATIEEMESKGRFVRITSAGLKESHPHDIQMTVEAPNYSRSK
T2 sequence (P0ADG7 whole entry): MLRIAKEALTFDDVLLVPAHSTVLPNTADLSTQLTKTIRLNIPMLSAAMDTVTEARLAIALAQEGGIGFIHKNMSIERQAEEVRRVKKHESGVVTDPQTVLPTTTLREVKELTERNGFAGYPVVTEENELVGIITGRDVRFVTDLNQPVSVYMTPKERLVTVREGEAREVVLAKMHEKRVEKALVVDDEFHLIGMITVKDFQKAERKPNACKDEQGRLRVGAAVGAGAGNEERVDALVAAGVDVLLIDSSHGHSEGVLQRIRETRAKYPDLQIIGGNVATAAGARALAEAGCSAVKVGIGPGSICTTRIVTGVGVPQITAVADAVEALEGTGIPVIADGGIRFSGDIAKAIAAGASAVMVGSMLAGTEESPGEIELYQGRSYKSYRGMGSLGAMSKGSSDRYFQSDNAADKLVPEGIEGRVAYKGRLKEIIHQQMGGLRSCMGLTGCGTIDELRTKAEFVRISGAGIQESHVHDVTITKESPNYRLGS
T1 sequence (P21879 whole entry): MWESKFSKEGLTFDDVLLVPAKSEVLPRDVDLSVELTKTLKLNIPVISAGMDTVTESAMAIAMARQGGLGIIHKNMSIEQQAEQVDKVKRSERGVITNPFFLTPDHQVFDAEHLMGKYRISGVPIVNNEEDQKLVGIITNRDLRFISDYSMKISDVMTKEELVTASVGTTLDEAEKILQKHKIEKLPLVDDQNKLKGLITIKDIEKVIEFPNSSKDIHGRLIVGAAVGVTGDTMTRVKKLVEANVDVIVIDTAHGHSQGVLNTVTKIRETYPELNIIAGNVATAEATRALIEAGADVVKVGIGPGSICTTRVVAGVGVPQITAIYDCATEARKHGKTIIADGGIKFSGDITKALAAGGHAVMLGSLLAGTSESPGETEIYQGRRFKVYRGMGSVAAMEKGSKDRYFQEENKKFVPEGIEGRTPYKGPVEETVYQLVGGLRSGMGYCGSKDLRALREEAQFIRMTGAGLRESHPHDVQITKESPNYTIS
T4 sequence (P0ADG7 whole entry): as the sequence (P0ADG7 whole entry) above

Row | Compound | K i,app ([1]; BsIMPDH) | effect on the catalytic activity in vitro ([1]; BsIMPDH) | K i,app ([2]; 0.25 mM ATP present) | effect on the catalytic activity in vitro [2] | K i,app ([3]; 0.25 mM ATP present) | effect on the catalytic activity in vitro [3] | K i,app ([4]; StcIMPDH) | effect on the catalytic activity in vitro ([4]; StcIMPDH) | GTP concentration doubling Km [5] | GTP concentration doubling Km [6] | inhibition of catalytic activity (potency range) ([1]; BsIMPDH, combined with ATP) | IC50 [1] | effect in vitro on the activity [2] | effect in vitro on the activity [3] | IC50 [4] | inhibition of catalytic activity (potency range) ([4]; StcIMPDH, combined with ATP) | effect on catalytic activity of HpIMPDH [7]
1 | Nc1nc2c(ncn2[C@@H]2O[C@H](COP(=O)(O)OP(=O)(O)O)[C@@H](O)[C@H]2O)c(=O)[nH]1 [GDP] | millimolar range | did not have a significant effect | mid‐micromolar range | did not have a significant effect | mid‐micromolar range | did not have a significant effect | millimolar range | did not have a significant effect | – | – | – | – | – | – | – | – | –
2 | Nc1nc2c(ncn2[C@@H]2O[C@H](COP(=O)(O)OP(=O)(O)OP(=O)(O)O)[C@@H](O)[C@H]2O)c(=O)[nH]1 [GTP] | millimolar range | did not have a significant effect | – | did not have a significant effect | – | did not have a significant effect | millimolar range | did not have a significant effect | 1300 µM | 800 µM | – | – | – | – | – | – | –
3 | Nc1nc2c(ncn2[C@@H]2O[C@H](COP(=O)(O)OP(=O)(O)O)[C@@H](OP(=O)(O)OP(=O)(O)O)[C@H]2O)c(=O)[nH]1 [ppGpp] | – | no significant effect | – | no significant effect | – | no significant effect | – | no significant effect | – | – | low micromolar range | 8.9 ± 0.4 µM | no detectable effect | no detectable effect | 2 ± 0.03 µM | low micromolar range | –
4 | Nc1nc2c(ncn2[C@@H]2O[C@H](COP(=O)(O)OP(=O)(O)OP(=O)(O)O)[C@@H](OP(=O)(O)OP(=O)(O)O)[C@H]2O)c(=O)[nH]1 [pppGpp] | – | – | – | – | – | – | – | – | – | – | – | 11.4 ± 1.2 µM | no detectable effect | no detectable effect | 1.4 ± 0.03 µM | – | –
5 | (p)ppGpp | – | – | – | – | – | – | – | – | – | – | – | – | – | – | – | – | allosteric inhibition
